Values after ≈ are worked out from the molar mass of the structure shown. Where two headings read alike, the source gives them in different places. Each block holds one compound with its values, some of them ahead of it.
Experiments:
[1] = Mouse PK study, IV administration; assay type: in vivo; conditions: IV 10 mg/kg, M01-M03 individual
eEF-2K = molecular target: T1, eEF-2K (Homo sapiens, UniProt O00418); assay: scanMAX Delta Kinase Panel (Eurofins), single concentration; assay type: biochemical; conditions: 10 μM; highest inhibition within the panel
T1 construct: purchased Eurofins 50-100KP10
Experimental: The issue of selectivity is of vital importance for a lead compound to estimate possible off-target effects that can influence the pre-clinical evaluation success. […] DDR1 kinase is mostly expressed in epithelial cells, whereas the expression of DDR2 is generally observed in […]. Even though that the prevention of fibrosis is the primary goal, the selectivity over DDR2 kinase is also a very important consideration.
The experimental procedures were performed by Eurofins. The activity of the molecules against hDDR1 and hDDR2 kinases was assessed using KinaseProfiler^67. The enzyme sample was incubated with 8 mM MOPS buffer (pH=7.0), 0.2 mM EDTA, […] target protein hDDR1 and hDDR2 kinases, 10 mM Magnesium acetate/Manganese chloride, respectively, and [γ-^33P]-ATP. The enzymatic reaction processed in the presence of Mg^2+ cations and ATP at room temperature for 40 minutes and terminated by addition of phosphoric acid. The reaction mixture (10 μL) was spotted onto a P30 filtermat and washed four times using 0.425% phosphoric acid and once with methanol. All the compounds were prepared in 100% DMSO. […] The biological evaluation of selectivity against non-target kinases was performed in Dundee Eurofins, using Scan Max Delta Panel [10 μM ATP] KinaseProfiler^68.

CYP2D6 = molecular target: T2, CYP2D6 (Homo sapiens, UniProt P10635); assay: Cytochrome inhibition in HLM; assay type: in vitro ADME
T2 construct: from tissue; host or cells: human liver microsomes (HLM)
Experimental: (§1) Water used in the assay and analysis was purified by ELGA Lab purification systems. Potassium phosphate buffer (PB) in concentration of 100 mM and MgCl2 in concentration of 33 mM were used. […] Microsomes were pulled out of the −80° C. freezer to thaw on ice, labeled the date and put back to freezer immediately after using. 20 μL of the substrates solutions were added to corresponding wells. 20 μL PB were added to Blank wells. 2 μL of the test compounds and positive control working solution were added to corresponding wells. Then, HLM working solution was prepared. 158 μL of the HLM working solution was added to all wells of incubation plate. The plate was pre-warmed for about 10 min at 37° C. water bath. Then, NADPH cofactor solution was prepared. 20 μL NADPH cofactor was added to all incubation wells. The solution was mixed and incubated for 10 minutes at 37° C. water bath. At the time point, the reaction was terminated by adding 400 μL cold stop solution (200 ng/mL Tolbutamide and 200 ng/mL Labetalol in ACN). The samples were centrifuged at 4000 rpm for 20 minutes to precipitate protein. 200 μL supernatant was transferred to 100 μL HPLC water and shaken for 10 min. XL fit was used to plot the percent of vehicle control versus the test compound concentrations, and for non-linear regression analysis of the data. IC50 values were determined using 3- or 4-parameter logistic equation.

CYP3A4-M = molecular target: T3, CYP3A4-M (Homo sapiens, UniProt P08684); assay: Cytochrome inhibition in HLM; assay type: in vitro ADME
T3 construct: from tissue; host or cells: human liver microsomes (HLM)
Experimental: as §1

CYP2C9 = molecular target: T4, CYP2C9 (Homo sapiens, UniProt P11712); assay: Cytochrome inhibition in HLM; assay type: in vitro ADME
T4 construct: from tissue; host or cells: human liver microsomes (HLM)
Experimental: as §1

CYP2C19 = molecular target: T5, CYP2C19 (Homo sapiens, UniProt P33261); assay: Cytochrome inhibition in HLM; assay type: in vitro ADME
T5 construct: from tissue; host or cells: human liver microsomes (HLM)
Experimental: as §1

[2] = system: collagen α1 production in LX-2 cells; assay: LX-2 fibrosis assay, TGF-β stimulated (Western blot); assay type: cell-based, human
Experimental: (§2) Collagen α1, α-SMA, CTGF and GAPDH were traced using Western blot analysis. DMSO and SB-525334 were used as negative and positive controls, respectively.
(§3) Human hepatic stellate cells LX-2 were grown in DMEM (Invitrogen, 11960) supplied with 1% MEM Non-Essential Amino Acids (Invitrogen, 11140-050), 2% fetal bovine serum (Hyclone, SV30087.03), Penicillin (100 U/mL)-streptomycin (100 μg/mL) (Millipore, TMS-AB2-C) and 2 mM L-Glutamine (Invitrogen, 25030-001). After the cells grew in 12-well plates for 24 h, the cell culture medium was changed to the same as above except using 0.4% fetal bovine serum. After 20 h growth in the reduced serum medium, the cells were treated with indicated doses of compounds for 30 minutes. Subsequently, the cells were stimulated with 4 ng/mL TGF-β (R&D Systems, 240-B-002) for 48 h. The cells were rinsed twice with DPBS before being harvested with 100 μL RIPA buffer (Sigma, R0278) supplemented with protease inhibitor cocktail (Roche, 04693132001) at 4° C. The total protein in each sample was quantified using BCA Protein Assay Kit (Pierce™, 23227) and equal amount of total protein of each sample was subject to Western blot analysis. Antibodies used were mouse anti-α-Actin (SPM332) (sc-365970), mouse anti-CTGF (E5) (sc-365970), and mouse anti-collagen al (3G3) (sc-293182), from Santa Cruz Biotechnologies; and mouse anti-GAPDH (6C5) (EMD Millipore, MAB374).

[3] = system: CTGF production in LX-2 cells; assay: as above; assay type: cell-based, human
Experimental: as §2, §3

log D 7.4 = assay type: physicochemical; conditions: TFA salt
Experimental: (§4) Since Compound 2 contains an imidazolidine fragment typically unusual in drug discovery we experimentally assessed key properties for this molecule. […] The inhibition activity of Compounds 1 and 2 towards a small panel of key cytochrome P450 (CYP450) isoforms was also assessed in vitro (Table 2).

pKa = assay type: physicochemical
Experimental: as §4

Thermodynamic solubility = assay type: physicochemical
Experimental: as §4

Kinetic solubility = assay type: physicochemical; conditions: pH=7.4
Experimental: as §4

[4] = system: α-actin (α-SMA) production in LX-2 cells; assay: LX-2 fibrosis assay, TGF-β stimulated (Western blot); assay type: cell-based, human; conditions: 14 nM
Experimental: Collagen α1, α-SMA, CTGF and GAPDH were traced using Western blot analysis.
After 20 h growth in the reduced serum medium, the cells were treated with indicated doses of compounds for 30 minutes.

T3 sequence (P08684 whole entry): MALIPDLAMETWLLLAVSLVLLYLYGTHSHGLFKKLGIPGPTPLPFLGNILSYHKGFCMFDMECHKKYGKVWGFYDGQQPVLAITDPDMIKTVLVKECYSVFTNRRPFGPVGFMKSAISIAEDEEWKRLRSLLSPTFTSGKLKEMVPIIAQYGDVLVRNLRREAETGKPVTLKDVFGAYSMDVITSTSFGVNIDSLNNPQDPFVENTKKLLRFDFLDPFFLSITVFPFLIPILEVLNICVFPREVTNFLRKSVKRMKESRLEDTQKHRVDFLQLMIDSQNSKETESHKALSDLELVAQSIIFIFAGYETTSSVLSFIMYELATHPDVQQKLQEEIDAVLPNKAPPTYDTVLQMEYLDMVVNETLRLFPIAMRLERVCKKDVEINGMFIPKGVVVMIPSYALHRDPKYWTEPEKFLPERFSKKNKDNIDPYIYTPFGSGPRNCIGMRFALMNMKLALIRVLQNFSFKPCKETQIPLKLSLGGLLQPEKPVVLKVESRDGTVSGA
T2 sequence (P10635 whole entry): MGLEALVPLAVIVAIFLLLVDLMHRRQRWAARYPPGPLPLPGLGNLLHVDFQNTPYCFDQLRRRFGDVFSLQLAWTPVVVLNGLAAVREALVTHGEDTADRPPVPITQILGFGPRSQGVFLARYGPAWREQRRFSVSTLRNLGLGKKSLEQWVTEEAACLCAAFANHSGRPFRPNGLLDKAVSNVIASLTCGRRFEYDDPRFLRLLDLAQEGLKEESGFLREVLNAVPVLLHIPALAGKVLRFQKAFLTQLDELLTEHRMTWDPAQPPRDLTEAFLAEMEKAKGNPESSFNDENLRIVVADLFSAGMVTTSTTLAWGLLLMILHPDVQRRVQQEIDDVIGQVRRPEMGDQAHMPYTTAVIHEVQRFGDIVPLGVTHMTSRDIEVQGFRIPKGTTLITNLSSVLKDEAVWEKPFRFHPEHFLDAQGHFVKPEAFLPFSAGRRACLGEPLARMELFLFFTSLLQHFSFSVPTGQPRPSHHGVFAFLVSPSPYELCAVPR
T4 sequence (P11712 whole entry): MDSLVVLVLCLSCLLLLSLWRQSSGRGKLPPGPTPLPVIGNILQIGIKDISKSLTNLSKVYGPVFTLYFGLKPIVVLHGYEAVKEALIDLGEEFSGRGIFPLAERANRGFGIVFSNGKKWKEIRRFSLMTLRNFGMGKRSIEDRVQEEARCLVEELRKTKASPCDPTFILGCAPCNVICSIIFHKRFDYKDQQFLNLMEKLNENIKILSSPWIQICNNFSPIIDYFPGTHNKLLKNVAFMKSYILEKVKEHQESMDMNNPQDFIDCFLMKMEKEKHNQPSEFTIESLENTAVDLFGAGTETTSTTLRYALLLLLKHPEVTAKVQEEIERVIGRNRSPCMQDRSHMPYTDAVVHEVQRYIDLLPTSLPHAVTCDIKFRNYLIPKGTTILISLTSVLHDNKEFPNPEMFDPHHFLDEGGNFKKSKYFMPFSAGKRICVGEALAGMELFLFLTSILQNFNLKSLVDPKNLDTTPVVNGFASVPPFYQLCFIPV
T5 sequence (P33261 whole entry): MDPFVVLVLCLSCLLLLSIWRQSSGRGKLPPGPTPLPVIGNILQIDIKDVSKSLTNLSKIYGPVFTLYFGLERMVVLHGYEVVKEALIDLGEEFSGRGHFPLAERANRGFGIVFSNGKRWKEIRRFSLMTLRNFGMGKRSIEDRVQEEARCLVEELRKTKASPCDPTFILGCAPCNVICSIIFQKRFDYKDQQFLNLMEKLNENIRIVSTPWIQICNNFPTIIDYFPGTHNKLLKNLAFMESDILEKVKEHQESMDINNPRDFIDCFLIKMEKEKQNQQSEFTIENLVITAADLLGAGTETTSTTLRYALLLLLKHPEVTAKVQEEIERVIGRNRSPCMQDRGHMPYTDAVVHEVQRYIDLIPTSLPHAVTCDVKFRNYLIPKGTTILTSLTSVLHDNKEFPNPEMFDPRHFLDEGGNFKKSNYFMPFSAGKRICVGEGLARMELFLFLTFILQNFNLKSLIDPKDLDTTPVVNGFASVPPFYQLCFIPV

Tlast ([1]; c4 Mean): 24.0 ± — h
AUC0-inf ([1]; c4 Mean ± SD): 6888 ± 359 ng·h/mL
AUC0-last ([1]; c4 Mean ± SD): 6830 ± 349 ng·h/mL
AUCExtra ([1]; c4 Mean ± SD): 0.845 ± 0.104%
AUMCExtra ([1]; c4 Mean ± SD): 5.42 ± 0.663%
C0 ([1]; c4 Mean ± SD): 2598 ± 572 ng/mL
Cl ([1]; c4 Mean ± SD): 19.1 ± 0.970 mL/min/kg
MRT0-inf ([1]; c4 Mean ± SD): 4.56 ± 0.193 h
MRT0-last ([1]; c4 Mean ± SD): 4.35 ± 0.187 h
T1/2 ([1]; c4 Mean ± SD): 3.65 ± 0.123 h
Vdss ([1]; c4 Mean ± SD): 5.21 ± 0.349 L/kg
INH % (eEF-2K): 37%
IC50 (CYP2D6): > 50 µM
IC50 (CYP3A4-M): > 50 µM
IC50 (CYP2C9): > 50 µM
IC50 (CYP2C19): > 50 µM
Compound: Cc1ccc2c(Nc3cccc(C(F)(F)F)c3)noc2c1C#Cc1cnc2cccnn12 [Compound 1]
IC50 ([2]; TGF-β stimulated LX-2 cells, normalized to GAPDH, read-out: IC50, collagen production): 0.013 µM
effect in CTGF assay ([3]; LX-2 cells): did not show the inhibition effect

Compound: O=C(Nc1cccc(C(=O)N2CCN(c3ccnc4[nH]ccc34)C2)c1)c1cccc(C(F)(F)F)c1 [Compound 2]
log D 7.4 (log D 7.4): 4.07
pKa (pKa): 6.99
IC50 (CYP2D6): 6.97 µM
IC50 (CYP3A4-M): 7.36 µM
IC50 (CYP2C9): 2.7 µM
IC50 (CYP2C19): 6.56 µM
IC50 ([2]; LX-2 cells, read-out: IC50, collagen assay): > 10 µM
CTGF production prevented ([3]; 14 nM): 43%
thermodynamic solubility (Thermodynamic solubility): < 0.59 µg/mL
kinetic solubility (Kinetic solubility): 1.09 µg/mL (≈ 2.27 µM)
inhibition of α-SMA [4]: 15%
